For 16 compounds, Ki results are on record in patent US9029364B2, “2,5-disubstituted thiomorpholine orexin receptor antagonists” (Merck Sharp & Dohme Corp., priority 2011, dated 2015).

Chain of human orexin-2 receptor (O43614 whole entry): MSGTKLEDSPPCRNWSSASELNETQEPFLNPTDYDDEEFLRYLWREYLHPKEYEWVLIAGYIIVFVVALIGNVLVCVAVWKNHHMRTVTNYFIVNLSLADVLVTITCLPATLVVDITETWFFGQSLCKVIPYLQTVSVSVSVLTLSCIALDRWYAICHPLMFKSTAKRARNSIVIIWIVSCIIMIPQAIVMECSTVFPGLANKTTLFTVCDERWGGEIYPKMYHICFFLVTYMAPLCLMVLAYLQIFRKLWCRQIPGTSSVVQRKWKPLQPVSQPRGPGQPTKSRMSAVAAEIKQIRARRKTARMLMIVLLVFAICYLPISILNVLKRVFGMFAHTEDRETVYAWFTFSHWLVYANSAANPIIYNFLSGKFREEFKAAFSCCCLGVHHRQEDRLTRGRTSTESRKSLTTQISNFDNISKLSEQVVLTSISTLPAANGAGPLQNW

The target of the assay is human orexin-2 receptor (Homo sapiens (Human), UniProt O43614). The assay can be described thus: radioligand binding assay, orexin-2 receptor (hOX2 Bind hKi). The note with it: membranes from CHO cells expressing OX2 receptor. The protocol:
In a typical experiment the OX1 and OX2 receptor antagonistic activity of the compounds of the present invention was determined in accordance with the following experimental method. For intracellular calcium measurements, Chinese hamster ovary (CHO) cells expressing the rat orexin-1 receptor or the human orexin-2 receptor, are grown in Iscove's modified DMEM containing 2 mM L-glutamine, […], 1% hypoxanthine-thymidine supplement, 100 U/ml penicillin, 100 μg/ml streptomycin and 10% heat-inactivated fetal calf serum (FCS). The cells are seeded at 20,000 cells/well into Becton-Dickinson black 384-well clear bottom sterile plates coated with poly-D-lysine. All reagents were from GIBCO-Invitrogen Corp. The seeded plates are incubated overnight at 37° C. and 5% CO2. Ala-6,12 human orexin-A as the agonist is prepared as a 1 mM stock solution in 1% bovine serum albumin (BSA) and diluted in assay buffer (HBSS containing 20 mM HEPES, 0.1% BSA and 2.5 mM probenecid, pH7.4) for use in the assay at a final concentration of 70 pM. Test compounds are prepared as 10 mM stock solution in DMSO, then diluted in 384-well plates, first in DMSO, then assay buffer. On the day of the assay, cells are washed 3 times with 100 μl assay buffer and then incubated for 60 min (37° C., 5% CO2) in 60 μl assay buffer containing 1 μM Fluo-4AM ester, 0.02% pluronic acid, and 1% BSA. The dye loading solution is then aspirated and cells are washed 3 times with 100 μl assay buffer. 30 μl of that same buffer is left in each well. Within the Fluorescent Imaging Plate Reader (FLIPR, Molecular Devices), test compounds are added to the plate in a volume of 25 μl, incubated for 5 min and finally 25 μl of agonist is added. Fluorescence is measured for each well at 1 second intervals for 5 minutes and the height of each fluorescence peak is compared to the height of the fluorescence peak induced by 70 pM Ala-6,12 orexin-A with buffer in place of antagonist. For each antagonist, IC50 value (the concentration of compound needed to inhibit 50% of the agonist response) is determined. Alternatively, compound potency can be assessed by a radioligand binding assay (described in Bergman et. al. Bioorg. Med. Chem. Lett. 2008, 18, 1425-1430) in which the inhibition constant (Ki) is determined in membranes prepared from CHO cells expressing either the OX1 or OX2 receptor. The intrinsic orexin receptor antagonist activity of a compound which may be used in the present invention may be determined by these assays.
The following tables show representative data for the compounds of the Examples as orexin receptor antagonists as determined by the foregoing assays wherein the hOX2 Ki is a measure of the ability of the test compound to inhibit the action of the human orexin-2 receptor and the hOX1R is a measure of the ability of the test compound to inhibit the action of the rat orexin-1 receptor.
Take `C[C@@H]1CS[C@@H](COc2ccc(C(F)(F)F)cn2)CN1C(=O)c1ccccc1-n1nccn1` [Example 7, (2R,5R)-5-methyl-4-{[2-(2H-1,2,3-triazol-2-yl)phenyl]carbonyl}-2-({[5-(trifluoromethyl)pyridin-2-yl]oxy}methyl)thiomorpholine]: the Ki (commonly the equilibrium dissociation constant of an inhibitor or competing ligand from its target) came out at 66 nM.

With `Cc1ccc(-n2nccn2)c(C(=O)N2C[C@H](COc3ccc(F)cn3)SC[C@H]2C)c1` [Example 1, [(2R,5R)-2-{[(5-Fluoropyridin-2-yl)oxy]methyl}-5-methylthiomorpholin-4-yl][5-methyl-2-(2H-1,2,3-triazol-2-yl)phenyl]methanone], the inhibition constant Ki came to 0.38 nM. `COc1cnc(OC[C@H]2CN(C(=O)c3ccccc3-n3nccn3)[C@H](C)CS2)nc1Cl` [Example 14, (2R,5R)-2-{[(4-chloro-5-methoxypyrimidin-2-yl)oxy]methyl}-5-methyl-4-{[2-(2H-1,2,3-triazol-2-yl)phenyl]carbonyl} thiomorpholine] yielded a Ki of 155 nM.

`C[C@@H]1CS[C@@H](COc2ncccc2Cl)CN1C(=O)c1ccccc1-n1nccn1` [Example 8, (2R,5R)-2-{[(3-chloropyridin-2-yl)oxy]methyl}-5-methyl-4-{[2-(2H-1,2,3-triazol-2-yl)phenyl]carbonyl} thiomorpholine]: the Ki was 2.5 nM. `C[C@@H]1CS[C@@H](COc2ccc(Cl)cn2)CN1C(=O)c1ccccc1-n1nccn1` [Example 5, (2R,5R)-2-{[(5-chloropyridin-2-yl)oxy]methyl}-5-methyl-4-{[2-(2H-1,2,3-triazol-2-yl)phenyl]carbonyl} thiomorpholine] returned a Ki of 1.7 nM. On to `C[C@@H]1CS[C@@H](COc2ncccn2)CN1C(=O)c1ccccc1-n1nccn1` [Example 11, (2R,5R)-5-methyl-2-[(pyrimidin-2-yloxy)methy1]-4-{[2-(2H-1,2,3-triazol-2-yl)phenyl]carbonyl} thiomorpholine], for which the inhibition constant Ki was more than 4650 nM. As for `Cc1ccc(OC[C@H]2CN(C(=O)c3ccccc3-n3nccn3)[C@H](C)CS2)nc1` [Example 4, (2R,5R)-5-methyl-2-{[(5-methylpyridin-2-yl)oxy]methyl}-4-{[2-(2H-1,2,3-triazol-2-yl)phenyl]carbonyl} thiomorpholine], the figure is 9.7 nM; as for `C[C@@H]1CS[C@@H](COc2ccc(C#N)cn2)CN1C(=O)c1ccccc1-n1nccn1` [Example 6, 6-{[(2R,5R)-5-methy1-4-{[2-(2H-1,2,3-triazol-2-yl)phenyl]carbonyl}thiomorpholin-2-yl]methoxy}pyridine-3-carbonitrile], 47 nM. The compound `C[C@@H]1CS[C@@H](COc2ccc(F)cn2)CN1C(=O)c1ccccc1-n1nccn1` [Example 3, (2R,5R)-2-{[(5-fluoropyridin-2-yl)oxy]methyl}-5-methy1-4-{[2-(2H-1,2,3-triazol-2-yl)phenyl]carbonyl} thiomorpholine] gave a Ki of 0.9 nM. `C[C@@H]1C[S+]([O-])[C@@H](COc2ccc(F)cn2)CN1C(=O)c1ccccc1-n1nccn1` (stereo partly drawn) [Example 15, [(2R,5R)-2-{[(5-Fluoropyridin-2-yl)oxy]methyl}-5-methyl-1-oxidothiomorpholin-4-yl][2-(2H-1,2,3-triazol-2-yl)phenyl]methanone] showed a Ki of 170 nM. Consider `C[C@@H]1CS[C@@H](CSc2ccccn2)CN1C(=O)c1ccccc1-n1nccn1` [Example 17, {(2R,5R)-5-Methyl-2-[(pyridine-2-ylsulfanyl)methyl]thiomorpholin-4-yl}[2-(2H-1,2,3-triazol-2-yl)phenyl]methanone], for which the Ki amounted to 98 nM.

`C[C@@H]1CS[C@@H](COc2ccccn2)CN1C(=O)c1ccccc1-n1nccn1` [Example 2, (2R,5R)-5-methyl-2-[(pyridin-2-yloxy)methy1]-4-{[2-(2H-1,2,3-triazol-2-yl)phenyl]carbonyl} thiomorpholine] returned an inhibitory constant (Ki) of 15.3 nM. Consider `C[C@@H]1CS[C@@H](COc2ncccc2C#N)CN1C(=O)c1ccccc1-n1nccn1` [Example 9, 2-{[(2R,5R)-5-methy1-4-{[2-(2H-1,2,3-triazol-2-yl)phenyl]carbonyl}thiomorpholin-2-yl]methoxy}pyridine-3-carbonitrile], for which the Ki turned out to be 150 nM. As for `Cc1nc(OC[C@H]2CN(C(=O)c3ccccc3-n3nccn3)[C@H](C)CS2)ncc1Cl` [Example 12, (2R,5R)-2-{[(5-chloro-4-methylpyrimidin-2-yl)oxy]methyl}-5-methyl-4-{[2-(2H-1,2,3-triazol-2-yl)phenyl]carbonyl} thiomorpholine], the figure is 32 nM; as for `Cc1cnc(OC[C@H]2CN(C(=O)c3ccccc3-n3nccn3)[C@H](C)CS2)nc1Cl` [Example 13, (2R,5R)-2-{[(4-chloro-5-methylpyrimidin-2-yl)oxy]methyl}-5-methyl-4-{[2-(2H-1,2,3-triazol-2-yl)phenyl]carbonyl} thiomorpholine], 7.4 nM. Consider `Cc1ccnc(OC[C@H]2CN(C(=O)c3ccccc3-n3nccn3)[C@H](C)CS2)c1` [Example 10, (2R,5R)-5-methyl-2-{[(4-methylpyridin-2-yl)oxy]methyl}-4-{[2-(2H-1,2,3-triazol-2-yl)phenyl]carbonyl} thiomorpholine], for which the inhibition constant (Ki) was 192 nM.
